# Experimental data reported in PMC11266098, “Prenylated flavonoids from Sophora flavescens inhibit mushroom tyrosinase activity and modulate melanogenesis in murine melanoma cells and zebrafish” (Frontiers in Pharmacology, 2024).
# Entries after “also recorded” stand apart in the source; their conditions may differ.
# Columns and labels:
# TRP-1 = assay: Western blotting of TRP-1 in B16F10 cells; type: cell-based, murine; conditions: 48 h
# Protocol: (§1) Equal amounts of proteins from the preceding step were loaded and separated by using the 10% SDS-PAGE gels before being electro-transferred onto polyvinylidene fluoride membranes. The membrane was then blocked with 5% skim milk in TBST (Tris-buffered saline containing 0.1% Tween 20) at room temperature for 2 h. The blots were incubated overnight with primary antibodies against TYR, TRP-1, MITF, DCT, and β-actin at 4°C. After washing thrice with TBST (5 min), the membrane was incubated with the secondary antibody for 1 h at room temperature. The protein bands were detected using the ECL detection kit and imaged using a chemiluminescence gel imaging system, and the band intensities were analyzed by the Image J software.
# [1] = target: T1, Intracellular tyrosinase in B16F10 cells (Mus musculus, UniProt P11344); assay: Measurement of tyrosinase activity in B16F10 cells (L-DOPA oxidation); type: cell-based, murine; conditions: 48 h
# T1 construct: endogenous in cells; host or cells: B16F10 murine melanoma cells
# T1 sequence (P11344 19-533): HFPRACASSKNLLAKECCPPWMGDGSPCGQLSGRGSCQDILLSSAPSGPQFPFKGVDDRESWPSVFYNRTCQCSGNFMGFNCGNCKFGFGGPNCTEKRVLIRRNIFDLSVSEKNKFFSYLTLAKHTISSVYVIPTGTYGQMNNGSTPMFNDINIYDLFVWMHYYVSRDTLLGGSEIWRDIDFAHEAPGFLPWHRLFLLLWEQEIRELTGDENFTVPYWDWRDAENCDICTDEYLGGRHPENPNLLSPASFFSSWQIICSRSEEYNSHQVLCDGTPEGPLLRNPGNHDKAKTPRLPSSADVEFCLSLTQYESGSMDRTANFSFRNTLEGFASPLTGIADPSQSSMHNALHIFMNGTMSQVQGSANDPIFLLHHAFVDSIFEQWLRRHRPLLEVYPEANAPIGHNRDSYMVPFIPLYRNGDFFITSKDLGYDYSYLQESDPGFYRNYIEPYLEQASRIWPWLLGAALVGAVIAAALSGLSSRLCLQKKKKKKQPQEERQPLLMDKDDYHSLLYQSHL
# Protocol: Intracellular tyrosinase activity was determined by measuring the rate of oxidation of L-DOPA to dopachrome according to a previously described method with a slight modification ([Maack and Pegard, 2016]). The tyrosinase inhibitor glabridin ([Zhang et al., 2023]) and tyrosinase activator 8-MOP ([Yin et al., 2018]) were both utilized as controls to ensure the accuracy of tyrosinase activity assay in living cells. B16F10 cells were cultured in 24-well plates at the density of 5 × 10^4 cells/mL overnight and then treated with different concentrations of test samples for 48 h. After treatments, cells were washed twice with PBS, lysed with PBS containing 1% Triton X-100, and frozen at −80°C for 1 h. The lysates were then clarified by centrifugation for 20 min at 4°C, 12,000 r/min. The protein content in the supernatants was measured using the Pierce BCA protein assay kit. After protein quantification and the adjustment of the protein concentrations, 100 μL of each lysate was mixed with 100 μL of 4 mM L-DOPA in a 96-well plate, and then incubated at 37°C for 1 h, the optical density at 475 nm was measured using a microplate reader. Tyrosinase activity was expressed as a percentage of the control. All experiments were carried out at least three times.
# B16F10 cells = assay: Measurement of melanin content in B16F10 cells; type: cell-based, murine; conditions: 48 h; for increase of intracellular melanin content: vs untreated cells
# Protocol: Measurement of melanin content was carried out according to a previously described method with a slight modification ([Karunarathne et al., 2019]). B16F10 cells were cultured in 6-well plates at the density of 2 × 10^5 cells/mL overnight before being treated with different concentrations of test samples for 48 h. After the treatments, the medium was discarded and the cells were washed twice with PBS and were collected, then 200 μL of RIPA lysis buffer was added to each well, and left standing in an ice bath for 40 min. The lysates were then clarified by centrifugation for 20 min at 4°C, 12,000 r/min. The protein content in the supernatants was measured using the Pierce BCA protein assay kit. Then the harvested cell pellets were photographed and dissolved in 100 μL of 1 M NaOH (containing 10% DMSO) at 100°C for 1 h. Melanin content was determined by measuring absorption at 405 nm. For the accurate calculation of melanin content, absorbance values were normalized to total protein absorbance values.
# [2] = Cell viability assay (MTT); type: cell-based, murine; conditions: mouse, B16F10 cells
# Protocol: B16F10 cells were seeded into 96-well plates at the density of 5 × 10^4 cells/mL, and incubated at 37°C for 24 h. Then, the cells were treated with different concentrations of test samples for 48 h. After incubation, 20 μL MTT (5 mg/mL) was added to each well, and incubated for another 4 h at 37°C. The reaction was stopped by adding 150 μL DMSO per well. The optical density at 490 nm was measured using a microplate reader. Cell viability was calculated as the percentage of viable cells relative to the control group.
# MITF = assay: Western blotting of MITF in B16F10 cells; type: cell-based, murine; conditions: 48 h
# Protocol: as §1
# zebrafish larvae [3] = assay: Zebrafish depigmentation model (without PTU pretreatment); type: in vivo; conditions: 48 h, no PTU pretreatment
# Protocol: (§2) To assess the effects of these compounds on melanogenesis in vivo, the total melanin content of whole zebrafish extracts was measured according to a previously described method with minor modification ([Karunarathne et al., 2019]; [Ding et al., 2021]). Briefly, zebrafish larvae of 24 h post-fertilized (hpf) were seeded in 24-well plates with ten embryos per well, each group was set up with four replicates and pretreated with 200 μM PTU for 24 h. Then, the culture medium was replaced with different concentrations of test samples and treated for another 48 h. 8-MOP (50 μM) was used as a positive control, blank controls were not treated and were cultured normally. In addition, to further verify the whitening effect of the compounds, ten zebrafish larvae (24 hpf) per well were seeded in a 24-well plate and cultured for another 24 h using fresh culture media, and each group was set up with four duplicates. Then, the culture medium was replaced with different concentrations of test samples, and the zebrafish larvae were incubated for another 48 h. 8-MOP (50 μM) and arbutin (100 mM) were used as positive controls. Spontaneous melanin content was measured from zebrafish larvae at 96 hpf. The fish embryos were fixed upright with sodium carboxymethylcellulose fixative. Five fish embryos from each experiment were randomly selected for photography under a stereomicroscope. The densitometric analysis was performed using Image J software.
# zebrafish larvae [4] = assay: Melanogenesis in zebrafish larvae pretreated with PTU; type: in vivo; conditions: 48 h, PTU 200 μM pretreatment
# Protocol: as §2
# mushroom tyrosinase = mushroom tyrosinase (Agaricus bisporus, UniProt C7FF04); assay: Tyrosinase inhibition kinetic analysis (Lineweaver-Burk); type: biochemical; conditions: Lineweaver-Burk plots, L-tyrosine substrate
# Chain of mushroom tyrosinase (C7FF04 1-392): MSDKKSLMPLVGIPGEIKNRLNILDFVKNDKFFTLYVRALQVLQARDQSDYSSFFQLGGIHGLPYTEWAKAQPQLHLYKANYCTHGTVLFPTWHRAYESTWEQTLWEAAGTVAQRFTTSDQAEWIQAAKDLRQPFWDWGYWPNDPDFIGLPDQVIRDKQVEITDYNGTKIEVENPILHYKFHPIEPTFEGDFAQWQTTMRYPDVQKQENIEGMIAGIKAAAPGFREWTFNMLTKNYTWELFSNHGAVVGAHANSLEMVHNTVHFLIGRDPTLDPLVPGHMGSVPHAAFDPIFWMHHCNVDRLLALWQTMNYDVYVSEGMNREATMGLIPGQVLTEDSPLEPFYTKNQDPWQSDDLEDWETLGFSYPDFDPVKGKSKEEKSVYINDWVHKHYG
# Protocol: The enzyme reaction kinetics of these compounds were measured by constructing Lineweaver-Burk plots of inverse velocities (1/[V]), contrary to the inverse of substrate concentration (1/[S]) ([Yoshino and Murakami, 2009]; [Butt et al., 2019]). Preincubations and measurement times were performed using the same protocol as described above. The substrate tyrosine concentration was kept between 0.5 and 8 mM in all kinetic studies, test sample concentrations were set as follows: glabridin (0–0.625 µM), KR (0–5 µM), SG (0–10 µM), IAI (0–2 µM). The values of the kinetic constants were calculated using Lineweaver-Burk plot analysis, and the maximum velocity (Vmax) and Michaelis constant (Km) were also calculated by the Lineweaver-Burk plots with the various concentrations of substrate.
# zebrafish embryos = assay: Determination of the maximum tolerated concentration (MTC) in zebrafish embryos; type: in vivo; conditions: 24 h
# Protocol: Zebrafish embryos that were developing normally at 24 h were chosen at random, five zebrafish embryos per well were seeded in 48 well plates, and each group was set up with three duplicates. The embryo culture medium in the 48-well plate was removed except the blank group, and 1 mL of culture medium containing different concentrations of test samples was added to treatment groups for 24 h. The vehicle control group was added to the embryo culture medium containing 0.1% of DMSO.
# DCT = assay: Western blotting of DCT in B16F10 cells; type: cell-based, murine; conditions: 48 h
# Protocol: as §1
# tyrosinase = target: tyrosinase; set-up: method as in Kim et al., 2003; conditions: ref Kim et al., 2003; read-out: IC50 (inhibition on tyrosinase activity); cited from earlier work
# TYR = assay: Western blotting of TYR in B16F10 cells; type: cell-based, murine; conditions: 10 μM, 48 h
# Protocol: as §1, with “[…],” for “TRP-1,”
compound,measurement,setting,value
"COc1c2occc2cc2ccc(=O)oc12 [8-MOP, 8-methoxypsoralen, reference compound]",expression of TRP-1 (in words),TRP-1; positive control,increased
same,effect on tyrosinase activity in B16F10 cells (in words),[1],enhance cellular tyrosinase activity
same,effect on melanin production in B16F10 cells (in words),B16F10 cells,promoted melanin biosynthesis
same,viability at 48 h,[2]; 0–100 μM,> 80%
same,expression of MITF (in words),MITF; positive control,increased
same,effect on melanin production vs control group (in words),zebrafish larvae [3],did not affect melanin production
same,increase of melanin production vs model (PTU) group,zebrafish larvae [4]; 50 μM,25.0%
"CC1(C)C=Cc2c(ccc3c2OC[C@@H](c2ccc(O)cc2O)C3)O1 [Glabridin, glabridin, reference compound]",effect on tyrosinase activity in B16F10 cells (in words),[1],inhibited tyrosinase activity
same,effect on melanin production in B16F10 cells (in words),B16F10 cells,strong anti-melanogenic effect
same,viability at 48 h,[2]; 0–2 μM,> 80%
"COc1cc(O)c2c(=O)c(O)c(-c3ccc(O)cc3)oc2c1CC=C(C)C [IAI, isoanhydroicaritin]",upregulation of relative expression of TRP-1 protein,TRP-1; 5 μM,240.0%
same,inhibition type on tyrosinase,mushroom tyrosinase,mixed type
same,increase of tyrosinase activity in B16F10 cells,[1]; 5 μM,25.2%
same,effect on tyrosinase activity in B16F10 cells (in words),[1],did not exhibit significant activity
same,toxicity in zebrafish by the MTC assay,"zebrafish embryos; 40, 80, and 160 μM",nontoxic
same,effect on melanin production in B16F10 cells (in words),B16F10 cells,did not exhibit significant activity; also recorded: did not exert any significant effects
same,upregulation of relative expression of DCT protein,DCT; 5 μM,83.4%
same,viability at 48 h,[2]; 0–5 μM,> 80%
same,reduction of pigmentation vs control group,zebrafish larvae [3]; 80 μM,33.0%
same,reduction of pigmentation vs control group,zebrafish larvae [3]; 160 μM,34.4%
"C=C(C)[C@H](CC=C(C)C)Cc1c(O)cc(OC)c2c1O[C@H](c1ccc(O)cc1O)CC2=O [KR, kurarinone]",upregulation of relative expression of TRP-1 protein,TRP-1; 10 μM,79.2%
same,inhibition type on tyrosinase,mushroom tyrosinase,mixed type
same,increase of tyrosinase activity in B16F10 cells,[1]; 2.5 μM,25.1%
same,increase of tyrosinase activity in B16F10 cells,[1]; 5 μM,42.1%
same,increase of tyrosinase activity in B16F10 cells,[1]; 10 μM,77.2%
same,effect on tyrosinase activity in B16F10 cells (in words),[1],enhanced intracellular tyrosinase activity
same,toxicity in zebrafish by the MTC assay,"zebrafish embryos; 5, 10, and 20 μM",nontoxic
same,increase of intracellular melanin content,B16F10 cells; 5 μM,61.6%
same,increase of intracellular melanin content,B16F10 cells; 10 μM,85.5%
same,effect on melanin production in B16F10 cells (in words),B16F10 cells,stimulated melanin production
same,upregulation of relative expression of DCT protein,DCT; 10 μM,127.8%
same,viability at 48 h,[2]; 0–20 μM,> 80%
same,upregulation of relative expression of MITF protein,MITF; 10 μM,84.0%
same,effect on melanin production vs control group (in words),zebrafish larvae [3],did not affect melanin production
same,IC50,tyrosinase,6.2 µM
same,increase of melanin production vs model (PTU) group,zebrafish larvae [4]; 20 μM,36.9%
"C=C(C)[C@H](CC=C(C)C)Cc1c(O)cc(O)c2c1O[C@H](c1ccc(O)cc1O)CC2=O [SG, sophoraflavanone G]",upregulation of relative expression of TRP-1 protein,TRP-1; 10 μM,229.3%
same,inhibition type on tyrosinase,mushroom tyrosinase,mixed type
same,increase of tyrosinase activity in B16F10 cells,[1]; 10 μM,45.7%
same,effect on tyrosinase activity in B16F10 cells (in words),[1],did not exhibit significant activity
same,toxicity in zebrafish by the MTC assay,zebrafish embryos; 10 μM,nontoxic
same,effect on melanin production in B16F10 cells (in words),B16F10 cells,did not exhibit significant activity; also recorded: did not exert any significant effects
same,upregulation of relative expression of DCT protein,DCT; 10 μM,70.0%
same,viability at 48 h,[2]; 0–10 μM,> 80%
same,increase of expression of TYR,TYR,78.4%
same,IC50,tyrosinase,6.6 µM
same,effect on melanin production vs model (PTU) group (in words),zebrafish larvae [4]; 10 μM,no effect
"OC[C@H]1O[C@@H](Oc2ccc(O)cc2)[C@H](O)[C@@H](O)[C@@H]1O [arbutin, reference compound]",reduction of pigmentation vs control group,zebrafish larvae [3]; 100 mM,51.4%
"C=C(C)[C@H](CC=C(C)C)Cc1c(O)cc(OC)c(C(=O)/C=C/c2ccc(O)cc2O)c1O [kuraridin, reference compound]",IC50,tyrosinase,0.6 µM
